Read-outs that look alike come from different tables or passages of the source.
Experiments:
[1] = test system: M-HeLa
[2] = test system: A549; test: cells; settings: Homo sapiens, A549, 48 h, read-out: Cytotoxic Effects (IC50)
[3] = test system: Enterococcus faecalis ATCC 29212; test: Antimicrobial activity, serial microdilutions, Ef; assay type: cell-based; parameters: key to Minimum Inhibitory Concentration (MIC) / Minimum bactericidal and fungicidal concentrations (MBC, MFC): – means non-active
Procedure: (§1) The antimicrobial activity of test compounds was determined by serial microdilutions in 96-well plates using Mueller-Hinton broth for bacterial culture and Sabouraud broth for yeast culture. Cultures of Gram-positive bacteria were used in the experiment: Staphylococcus aureus ATCC 6538 P FDA 209P, Bacillus cereus ATCC 10702 NCTC 8035, Enterococcus faecalis ATCC 29212; Gram-negative bacteria: Escherichia coli ATCC 25922, Pseudomonas aeruginosa ATCC 9027; and yeast: Candida albicans ATCC 10231, purchased from the State Collection of Pathogenic Microorganisms and Cell Cultures “SCPM-Obolensk” (Obolensk, Russia). Methicillin-resistant strains of S. aureus (MRSA) were isolated from patients with chronic tonsillitis (MRSA-1) and sinusitis (MRSA-2) in the bacteriological laboratory of the Republican Clinical Hospital (Kazan, Russia). The experiments were carried out in triplicate.

[4] = test system: DU-145; test: cells; settings: Homo sapiens, DU-145, 48 h, read-out: Cytotoxic Effects (IC50), DU-145, MTT assay, 48 h
[5] = test system: MCF-7; test: cells; settings: Homo sapiens, MCF7, 48 h, read-out: Cytotoxic Effects (IC50)
[6] = test system: Bacillus cereus ATCC 10702 NCTC 8035; test: Antimicrobial activity, serial microdilutions, Bc; assay type: cell-based; parameters: key to Minimum bactericidal and fungicidal concentrations (MBC, MFC): – means non-active; settings: for MIC: read-out: Minimum Inhibitory Concentration (MIC)
Procedure: as §1

[7] = test system: PANC-1; test: cells; settings: Homo sapiens, PANC-1, 48 h, read-out: Cytotoxic Effects (IC50)
[8] = test system: A549
[9] = test system: PC3
[10] = test system: PANC-1
[11] = test system: Staphylococcus aureus ATCC 6538 P FDA 209P; test: Antimicrobial activity, serial microdilutions, Sa; assay type: cell-based; parameters: key to Minimum bactericidal and fungicidal concentrations (MBC, MFC): – means non-active; settings: for MIC: read-out: Minimum Inhibitory Concentration (MIC)
Procedure: as §1

[12] = test system: MRSA-1; test: Antimicrobial activity, serial microdilutions, MRSA-1; assay type: cell-based, S. aureus; parameters: key to Minimum Inhibitory Concentration (MIC) / Minimum bactericidal and fungicidal concentrations (MBC, MFC): – means non-active; settings: for MIC: read-out: Minimum Inhibitory Concentration (MIC)
Procedure: as §1

[13] = test system: HuTu 80; test: cells; settings: Homo sapiens, HuTu80, 48 h, read-out: Cytotoxic Effects (IC50)
[14] = test system: Pseudomonas aeruginosa ATCC 9027; test: Antimicrobial activity, serial microdilutions, Pa; assay type: cell-based; parameters: key to Minimum Inhibitory Concentration (MIC) / Minimum bactericidal and fungicidal concentrations (MBC, MFC): – means non-active
Procedure: as §1

[15] = test system: MCF-7
[16] = test system: Escherichia coli ATCC 25922; test: Antimicrobial activity, serial microdilutions, Ec; assay type: cell-based; parameters: key to Minimum Inhibitory Concentration (MIC) / Minimum bactericidal and fungicidal concentrations (MBC, MFC): – means non-active
Procedure: as §1

[17] = test system: T98G
[18] = test system: M-HeLa; test: cells; settings: Homo sapiens, 48 h, read-out: Cytotoxic Effects (IC50)
[19] = test system: T98G; test: cells; settings: Homo sapiens, 48 h, read-out: Cytotoxic Effects (IC50)
[20] = test system: Candida albicans ATCC 10231; test: Antimicrobial activity, serial microdilutions, Ca; assay type: cell-based; parameters: key to Minimum Inhibitory Concentration (MIC) / Minimum bactericidal and fungicidal concentrations (MBC, MFC): – means non-active
Procedure: as §1

[21] = test system: SK-OV-3; test: cells; settings: Homo sapiens, SK-OV-3, 48 h, read-out: Cytotoxic Effects (IC50)
[22] = test system: MRSA-2; test: Antimicrobial activity, serial microdilutions, MRSA-2; assay type: cell-based, S. aureus; settings: Staphylococcus aureus; for MIC: read-out: Minimum Inhibitory Concentration (MIC); for MBC: read-out: Minimum bactericidal and fungicidal concentrations (MBC, MFC)
Procedure: as §1

[23] = test system: HuTu 80
[24] = test system: Hep G2; test: cells; settings: Homo sapiens, HepG2, 48 h, read-out: Cytotoxic Effects (IC50)
[25] = test system: DU-145
[26] = test system: PC3; test: cells; settings: Homo sapiens, PC-3, 48 h, read-out: Cytotoxic Effects (IC50), PC3, MTT assay, 48 h
[27] = test system: Hep G2
[28] = test system: SK-OV-3
[29] = calculated relative to the cell line Chang liver (b)
[30] = Staphylococcus aureus, read-out: Minimum bactericidal and fungicidal concentrations (MBC, MFC)
[31] = calculated relative to the cell line WI38 (a)
[32] = reference normal cell line not marked at the place (ns cells)

CCCCCCCCCCCCCC[P+](N(CC)CC)(N(CC)CC)N(CC)CC [4e, Tris(diethylamino)(tetradecyl)phosphonium bromide]
selectivity index (SI) [1, 29]: 4.3 | IC50 [2]: 1700 ± 100 nM | MIC ([3]; Enterococcus faecalis, ATCC29212, read-out: Minimum Inhibitory Concentration (MIC)): 0.5 ± 0.04 µM | MBC ([3]; Enterococcus faecalis, ATCC29212, read-out: Minimum bactericidal and fungicidal concentrations (MBC, MFC)): 1.9 ± 0.1 µM | IC50 [4]: 0.4 ± 0.03 µM | IC50 [5]: 0.9 ± 0.07 µM | MIC ([6]; Bacillus cereus, Bc): 0.5 ± 0.04 µM | MBC ([6]; Bacillus cereus, read-out: Minimum bactericidal and fungicidal concentrations (MBC, MFC)): 7.8 ± 0.6 µM | IC50 [7]: 0.4 ± 0.03 µM | selectivity index (SI) [8, 29]: 1.0 | selectivity index (SI) [9, 29]: 1.0 | selectivity index (SI) [10, 29]: 4.3 | MIC ([11]; Staphylococcus aureus): 0.25 ± 0.01 µM | MBC [11, 30]: 0.9 ± 0.07 µM | MIC ([12]; Staphylococcus aureus): 0.5 ± 0.04 µM | MBC [12, 30]: 0.5 ± 0.04 µM | IC50 [13]: 60 ± 5 nM | MIC ([14]; Pseudomonas aeruginosa, ATCC9027, read-out: Minimum Inhibitory Concentration (MIC)): 7.8 ± 0.6 µM | MBC ([14]; Pseudomonas aeruginosa, ATCC9027, read-out: Minimum bactericidal and fungicidal concentrations (MBC, MFC)): 7.8 ± 0.6 µM | selectivity index (SI) [15, 29]: 1.9 | MIC ([16]; Escherichia coli, ATCC25922, read-out: Minimum Inhibitory Concentration (MIC)): 15.6 ± 1.3 µM | MBC ([16]; Escherichia coli, ATCC25922, read-out: Minimum bactericidal and fungicidal concentrations (MBC, MFC)): 62.5 ± 5.2 µM | selectivity index (SI) [17, 29]: 1.7 | IC50 [18]: 0.4 ± 0.03 µM | IC50 [19]: 1000 ± 90 nM | MIC ([20]; Candida albicans, ATCC10231, read-out: Minimum Inhibitory Concentration (MIC)): 1.9 ± 0.1 µM | MBC ([20]; Candida albicans, ATCC10231, read-out: Minimum bactericidal and fungicidal concentrations (MBC, MFC)): 7.8 ± 0.6 µM | IC50 [21]: 1.7 ± 0.1 µM | MIC [22]: 0.25 ± 0.02 µM | MBC [22]: 0.25 ± 0.02 µM | selectivity index (SI) [23, 29]: 28 | IC50 [24]: 1500 ± 100 nM | selectivity index (SI) [25, 29]: 4.3 | IC50 [26]: 1.7 ± 0.1 µM | selectivity index (SI) [27, 29]: 1.1 | selectivity index (SI) [28, 29]: 1.0

CCCCCCCC[N+](CC)(CC)CC [compound 7, Triethyloctylammonium iodide, reference compound]
selectivity index (SI) [1, 31]: 3.0 | IC50 [2]: > 100000 nM | Minimum Inhibitory Concentration (MIC) [3]: – | Minimum bactericidal and fungicidal concentrations (MBC, MFC) [3]: – | IC50 [4]: 58 ± 4.1 µM | IC50 [5]: 29.1 ± 2 µM | MIC ([6]; Bacillus cereus, Bc): 500 ± 47 µM | Minimum bactericidal and fungicidal concentrations (MBC, MFC) ([6]; Bc): – | IC50 [7]: 44.6 ± 3.1 µM | selectivity index (SI) [8, 32]: ns (ns—no selectivity) | selectivity index (SI) [9, 31]: 1.5 | selectivity index (SI) [10, 31]: 1.1 | Minimum bactericidal and fungicidal concentrations (MBC, MFC) [11]: – | MIC ([11]; Staphylococcus aureus): 250 ± 20 µM | Minimum bactericidal and fungicidal concentrations (MBC, MFC) [12]: – | MIC ([12]; Staphylococcus aureus): 250 ± 19 µM | IC50 [13]: 1900 ± 200 nM | Minimum Inhibitory Concentration (MIC) [14]: – | Minimum bactericidal and fungicidal concentrations (MBC, MFC) [14]: – | selectivity index (SI) [15, 31]: 1.7 | Minimum Inhibitory Concentration (MIC) [16]: – | Minimum bactericidal and fungicidal concentrations (MBC, MFC) [16]: – | selectivity index (SI) [17, 32]: ns (ns—no selectivity) | IC50 [18]: 16.1 ± 1.3 µM | IC50 [19]: > 100000 nM | Minimum Inhibitory Concentration (MIC) ([20]; Ca): – | Minimum bactericidal and fungicidal concentrations (MBC, MFC) ([20]; Ca): – | IC50 [21]: 69 ± 4.8 µM | MIC [22]: 250 ± 20 µM | MBC [22]: 500 ± 47 µM | selectivity index (SI) [23, 31]: 26 | IC50 [24]: > 100000 nM | selectivity index (SI) [25, 32]: ns (ns—no selectivity) | IC50 [26]: 32.7 ± 2.3 µM | selectivity index (SI) [27, 32]: ns (ns—no selectivity) | selectivity index (SI) [28, 32]: ns (ns—no selectivity)
